Laboratory results: patent US11666589B2, “Pivarubicin and benzarubicin compositions” (Paradox Pharmaceuticals, Inc., priority 2020, dated 2023)
Where “and” joins values, the source holds several entries; their conditions need not be identical. Identical values can stand only once. Like-named read-outs stand apart in the source and are kept apart here.

Experiments:
CEM/VLB-10 = assay: Drug resistance of P-glycoprotein overexpressing CEM/VLB-10 cells; format: cell-based, human; settings: CEM/VLB-10 versus CCRF-CEM
Description: (§1) Pivarubicin used for TNBC studies was synthesized by Dr. John Rimoldi (Univ. of Mississippi) using the previously described protocol. Doxorubicin HCl, rottlerin and all antibodies were purchased from Sigma-Aldrich (St. Louis, Mo.). For in vitro experiments, doxorubicin and pivarubicin were dissolved in DMSO. The final maximum DMSO concentration used for in vitro drug treatments (1% for 72 hours) was not cytotoxic. IL-3-dependent 32D.3 murine myeloid cells, CCRF-CEM human lymphoblastic leukemia cells and multidrug-resistant variants (generous gift of Dr. William T. Beck, St. Jude Children's Research Hospital, Memphis, Tenn.), 293 embryonic human kidney cells and HL-60 human acute myeloid leukemia cells transfected with Bcr-Abl, Bcl-XL or empty expression vectors (generous gift of Dr. Kapil Bhalla, Univ. of Miami) were maintained as previously described. K562 human chronic myelogenous leukemia and LNCaP human prostate cancer cells were purchased from ATCC (Manassas, Va.) and maintained as described by the vendor. LNCaP/Bcl-2 cells were the generous gift of Dr. Ralph Buttyan (Columbia Univ.). Luminescent MDA-MB-231-LM2 (LM-2; metastatic lung subpopulation isolated from human TNBC MDA-MB-231 cells transduced with eIF1a-Luc2-puro lentivirus) were generously provided by Dr. Yibin Kang, Princeton Univ.) and maintained in culture as previously described. […]

MDA-MB-231 cells = assay: MTT cytotoxicity, TNBC monolayer MDA-MB-231; format: cell-based, human; settings: MDA-MB-231, 48 h
Description: Rottlerin treatment of cells, cell viability analysis by MTT [28] and immunoblot identification of protein expression were performed and described previously.
Based upon the ability of pivarubicin to circumvent multiple mechanisms of resistance against doxorubicin, we then examined the efficacy of pivarubicin against TNBC in comparison to doxorubicin, using the following procedure, using two basal TNBC cell lines. MDA-MB-231 cells and SUM-159 cells were maintained under adherent monolayer growth conditions. Upon reaching 50% confluency, cells were treated for 48 h with the dose range of doxorubicin or pivarubicin as indicated in FIGS. 6A and 6B.
In the absence of specific receptor targets, the current treatment of metastatic TNBC relies on doxorubicin-based multidrug therapy, with only limited effectiveness. […] Once achieving a primary tumor volume of 150-190 mm^3, mice were randomized into three cohorts for treatment with the MTD of pivarubicin or doxorubicin, or the equivalent volume per body weight of vehicle.

[1] = Cardiotoxicity assessment (Bertazzoli Test), non-tumor-bearing mice; format: in vivo, female NSG mice; settings: for hearts with Severity 0 / hearts with Severity 0.5 / hearts with Severity 1.0 / hearts with Total Score 0 / hearts with Total Score 0.5 / hearts with Total Score 1.0: Non-Tumor-Bearing; for hearts with Severity 0 / hearts with Severity 0.5 / hearts with Severity 1.0: 3 i.p. doses at 2-week intervals; for hearts with Total Score 0 / hearts with Total Score 0.5 / hearts with Total Score 1.0: severity×extension
Description: (§2) Drug-mediated cardiotoxicity was assessed in both non-tumor-bearing female NSG mice administered three doses (i.p. every two weeks) of the MTD of doxorubicin, pivarubicin or the equivalent volume of solvent only and in hearts excised from tumor-bearing mice treated as described in Results section. Body weights were monitored every three days. Two weeks after final dose, mice were sacrificed, and hearts were excised immediately. Intact ventricular myocardia were fixed for a minimum of 24 h in 10% formalin phosphate buffered to pH 7.0 and then carefully sectioned into 2 to 3-mm thick slices before being dehydrated in graded ethanol and cleared in xylene prior to embedding in paraffin at 58° C. Sections (4-μm thick) were mounted on glass slides, deparaffinized in xylene, and stained in the routine fashion with Mayer's hematoxylin and eosin. Slide labels were blinded to evaluator. Myocardial lesions were evaluated by routine light microscopy and scored with regard to the severity and extent of damage:
(§3) Degree of severity (S)—0, no evidence of histological changes; 1, sarcoplasmic microvacuolization and/or inclusions (interstitial or cellular edema); 2, as in 1 plus sarcoplasmic macrovacuolization or atrophia, necrosis, fibrosis, endocardial lesions, and thrombi.
(§4) Degree of extension (E)—0, no lesions; 0.5, less than 10 single altered myocytes on the whole-heart section; 1, scattered single altered myocytes; 2, scattered small groups of altered myocytes; 3, spread small groups of altered myocytes; 4, confluent groups of altered myocytes; 5, most of cells damaged.
(§5) Total cardiotoxicity score/animal=S×E and mean total score (MTS) for each treatment group was MTS=(S×E)/number of animals.
(§6) Given the limitation of doxorubicin in the treatment of tumors due to irreversible cardiotoxicity due to the total cumulative dose of drug, it was next determined whether pivarubicin produced evidence of cardiotoxic damage at the total dose of drug administered to NSG mice that produced tumor growth inhibition. Histological evidence of ventricular damage in hearts of drug- or vehicle-treated NSG mice were assessed using the Bertazzoli Test, originally designed to assess doxorubicin-induced cardiomyocyte damage. Analyses were performed on hearts from two independent experiments: 1) hearts that were excised at dosing endpoint from tumor-bearing NSG mice receiving 2 i.p. doses of pivarubicin at 16.5 mg/kg, doxorubicin at 1.4 mg/kg then 1.6 mg/kg and an equivalent volume of vehicle alone and 2) non-tumor-bearing female NSG mice receiving 3 i.p. doses of pivarubicin at 16.5 mg/kg, doxorubicin at 1.4 mg/kg then 1.6 mg/kg×2 and an equivalent volume of vehicle alone at 2-week intervals.
(§7) Non-tumor-bearing female NSG mice at 9 weeks old were treated with either 16.5 mg/kg pivarubicin (PIV), 1.4 mg/kg (1×) and 1.6 mg/kg (2×) doxorubicin and equivalent volumes of vehicle i.p. at 2-week intervals. Tumor-bearing female NSG mouse treatment was as described for the “Cardiotoxicity Assessment method” method. At endpoint, hearts were excised and prepared for histological analysis as described above. Severity and severity×extension (total score) are defined in Materials and Methods.

[2] = Maximum tolerated dose in non-tumor-bearing mice; format: in vivo, female NSG mice
Description: The MTD for pivarubicin was 26.6 mg/kg, producing a reversible mean 20% weight loss after two doses, with a third dose producing an irreversible mean weight loss >20%.

CEM/VLB-100 = assay: Drug resistance of P-glycoprotein overexpressing CEM/VLB-100 cells; format: cell-based, human; settings: CEM/VLB-100 versus CCRF-CEM
Description: as §1

[3] = Cardiotoxicity assessment (Bertazzoli Test), tumor-bearing mice; format: in vivo, female NSG mice; settings: for hearts with Severity 0 / hearts with Severity 0.5 / hearts with Severity 1.0: 2 i.p. doses; for hearts with Total Score 0 / hearts with Total Score 0.5 / hearts with Total Score 1.0: severity×extension
Description: as §2, §3, §4, §5, §6, §7

Structure (SMILES)	resistance (CEM/VLB-10)	hearts with Severity 0 [1]	hearts with Severity 0.5 [1]	hearts with Severity 1.0 [1]	hearts with Total Score 0 [1]	hearts with Total Score 0.5 [1]	hearts with Total Score 1.0 [1]	resistance (CEM/VLB-100)	hearts with Severity 0 [3]	hearts with Severity 0.5 [3]	hearts with Severity 1.0 [3]	hearts with Total Score 0 [3]	hearts with Total Score 0.5 [3]	hearts with Total Score 1.0 [3]	also measured
COc1cccc2c1C(=O)c1c(O)c3c(c(O)c1C2=O)C[C@@](O)(C(=O)CO)C[C@@H]3O[C@H]1C[C@H](N)[C@H](O)[C@H](C)O1 [Doxorubicin, reference compound]	12 fold	5/9	0/9	4/9	7/9	2/9	0/9	73 fold	7/9	0/9	2/9	8/9	1/9	0/9	IC90 (MDA-MB-231 cells; Homo sapiens): > 20 µM; IC90 (MDA-MB-231 cells): 20 µM; reversible mean weight loss ([2]; 1.4 mg/kg after 3 prior escalating doses): 22%; irreversible mean weight loss ([2]; 1.8 mg/kg, independent dosing experiment): > 25%; MTD ([2]; i.p. once every 2 weeks): 1.4 mg/kg
COc1cccc2c1C(=O)c1c(O)c3c(c(O)c1C2=O)C[C@@](O)(C(=O)COC(=O)C(C)(C)C)C[C@@H]3O[C@H]1C[C@H](NCc2ccccc2)[C@H](O)[C@H](C)O1 [Pivarubicin, N-Benzyladriamycin-14-pivalate]	no resistance	9/9	0/9	0/9	9/9	0/9	0/9	3 fold	9/10	0/10	1/10	9/10	0/10	1/10	IC50 (MDA-MB-231 cells): 2.5 µM; IC90 (MDA-MB-231 cells; read-out: IC90): 4.5 µM and 5.1 µM; histologic damage to ventricular cardiomyocytes ([1]; non-tumor-bearing mice (n=9), cumulative tumor growth inhibitory dose): no evidence of histologic damage; reversible mean weight loss ([2]; 26.6 mg/kg, after two doses): 20%; irreversible mean weight loss ([2]; 26.6 mg/kg, third dose): > 20%
